Data: patent US11000033B2, “Ketone or oxime compound, and herbicide” (NISSAN CHEMICAL CORPORATION, priority 2014, dated 2021)

Key:
Assay type in all cases: in vivo
Abutilon theophrasti = assay: Test Example 5: herbicidal effect by foliage application, plastic box (symbol M); settings: 320 g/ha, 3 weeks after application
In short: (§1)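 Greenhouse foliar test: seedlings at 14 days, grown 25° C. to 30° C. in sterilized diluvial soil; compound applied as an aqueous dilution of an emulsion; response read 3 weeks after spraying.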

Apera spica-venti = assay: Test Example 5: herbicidal effect by foliage application, plastic box (symbol L); settings: 320 g/ha, 3 weeks after application
In short: as §1

Setaria viridis = assay: Test Example 4: herbicidal effect by soil treatment (symbol G); settings: application herbicide amount 320 g/ha
In short: (§2)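 Seeds were sown in sterilized diluvial soil, covered with about 1.5 cm of soil, and the soil surface was sprayed with a water-diluted emulsion of the compound at a predetermined rate. Plants grew in a greenhouse at 25° C. to 30° C.; effects were scored visually 3 weeks after application.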

Leptochloa chinensis = assay: Test Example 3: herbicidal effect by foliage application, Wagner pot (symbol D); settings: application herbicide amount 320 g/ha
In short: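 The compound, formulated as an emulsion and diluted with water to a predetermined rate, is applied uniformly to leaves of two-week-old seedlings growing in submerged alluvial soil at 25–30 °C. Rice is included. Each plant is assessed 3 weeks later using defined criteria.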

[1] = tested on: Echinochloa oryzacola Vasing.; assay: Test Example 2: herbicidal activity, application during weed generation in submerged conditions (symbol A); settings: Table 23; application herbicide amount 320 g/ha; grade 0-5 by criteria of Test Example 1
In short: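 Treatment timing was the one- to two-leaf stage, with diluted emulsifiable compound dropped onto the paddy water (depth 4 cm) over alluvial soil. All three species grew from a mixed sowing in a 25° C. to 30° C. greenhouse. Injury was judged by eye 3 weeks on.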

Chenopodium album [2] = assay: Test Example 4: herbicidal effect by soil treatment (symbol O); settings: application herbicide amount 320 g/ha
In short: as §2

corn = assay: Test Example 5: effect on crop by foliage application, plastic box (symbol c); settings: 320 g/ha, 3 weeks after application
In short: (§3)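 Plants were raised from seed in a greenhouse (25° C. to 30° C.) after sowing in a plastic box of sterilized diluvial soil.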

soybean = assay: Test Example 5: effect on crop by foliage application, plastic box (symbol d); settings: 320 g/ha, 3 weeks after application
In short: as §3

rapeseed = assay: Test Example 5: effect on crop by foliage application, plastic box (symbol g); settings: 320 g/ha, 3 weeks after application
In short: as §3

Chenopodium album [3] = assay: Test Example 5: herbicidal effect by foliage application, plastic box (symbol O); settings: 320 g/ha, 3 weeks after application
In short: as §1

beet = assay: Test Example 5: effect on crop by foliage application, plastic box (symbol f); settings: 320 g/ha, 3 weeks after application
In short: as §3

Monochoria vaginalis = assay: Test Example 1: herbicidal activity, application before weed generation in submerged conditions (symbol C); settings: application herbicide amount 320 g/ha
In short: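 Weed control was rated three weeks after treatment on a 0–5 scale, from 5% or lower up to 90% or more. Pre-emergence water-surface application of diluted emulsion at a predetermined rate was made on the day of sowing, in flooded (4 cm water) pots containing rice seedlings, kept at 25–30 °C under glass.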

Amaranthus retroflexus = assay: Test Example 5: herbicidal effect by foliage application, plastic box (symbol N); settings: 320 g/ha, 3 weeks after application
In short: as §1

Digitaria ciliaris = assay: Test Example 4: herbicidal effect by soil treatment (symbol F); settings: application herbicide amount 320 g/ha
In short: as §2

SMILES	M: Abutilon theophrasti, herbicidal effect grade (Abutilon theophrasti)	L: Apera spica-venti, herbicidal effect grade (Apera spica-venti)	G: Setaria viridis, herbicidal effect grade (Setaria viridis)	herbicidal effect on D (Leptochloa chinensis), grade 0-5 (Leptochloa chinensis)	Herbicidal effect grade, A: Echinochloa oryzacola Vasing. [1]	O: Chenopodium album, herbicidal effect grade (Chenopodium album [2])	c: corn, effect on crop grade (corn)	d: soybean, effect on crop grade (soybean)	g: rapeseed, effect on crop grade (rapeseed)	O: Chenopodium album, herbicidal effect grade (Chenopodium album [3])	f: beet, effect on crop grade (beet)	Herbicidal effect grade, C: Monochoria vaginalis (Monochoria vaginalis)	N: Amaranthus retroflexus, herbicidal effect grade (Amaranthus retroflexus)	F: Digitaria ciliaris, herbicidal effect grade (Digitaria ciliaris)
CCC(C)C(=O)CC1CC(O)=C(c2c(C)cc(C)cc2C)C1=O (centres unmarked) [2-024]	0 (Herbicidal ratio of 5% or lower (almost no effect))	2 (Herbicidal ratio of 20% or higher and lower than 40%)	5 (Herbicidal ratio of 90% or more (almost completely withered))	3 (Herbicidal ratio of 40% or higher and lower than 70%)	1 (Herbicidal ratio of 5% or higher and lower than 20%)	0 (Herbicidal ratio of 5% or lower (almost no effect))	3 (Herbicidal ratio of 40% or higher and lower than 70%)	0 (Herbicidal ratio of 5% or lower (almost no effect))	3 (Herbicidal ratio of 40% or higher and lower than 70%)	0 (Herbicidal ratio of 5% or lower (almost no effect))	0 (Herbicidal ratio of 5% or lower (almost no effect))	0 (Herbicidal ratio of 5% or lower (almost no effect))	0 (Herbicidal ratio of 5% or lower (almost no effect))	5 (Herbicidal ratio of 90% or more (almost completely withered))
CON=CC1CC(O)=C(c2c(C)cc(C)cc2C)C1=O (mixture of isomers) [3-001]	0 (Herbicidal ratio of 5% or lower (almost no effect))	3 (Herbicidal ratio of 40% or higher and lower than 70%)	0 (Herbicidal ratio of 5% or lower (almost no effect))	2 (Herbicidal ratio of 20% or higher and lower than 40%)	0 (Herbicidal ratio of 5% or lower (almost no effect))	0 (Herbicidal ratio of 5% or lower (almost no effect))	2 (Herbicidal ratio of 20% or higher and lower than 40%)	0 (Herbicidal ratio of 5% or lower (almost no effect))	0 (Herbicidal ratio of 5% or lower (almost no effect))	0 (Herbicidal ratio of 5% or lower (almost no effect))	0 (Herbicidal ratio of 5% or lower (almost no effect))	0 (Herbicidal ratio of 5% or lower (almost no effect))	0 (Herbicidal ratio of 5% or lower (almost no effect))	2 (Herbicidal ratio of 20% or higher and lower than 40%)
Cc1cc(C)c(C2=C(O)CC(CC(=O)C(C)(C)C)C2=O)c(C)c1 (centres unmarked) [2-022]	0 (Herbicidal ratio of 5% or lower (almost no effect))	2 (Herbicidal ratio of 20% or higher and lower than 40%)	4 (Herbicidal ratio of 70% or higher and lower than 90%)	4 (Herbicidal ratio of 70% or higher and lower than 90%)	1 (Herbicidal ratio of 5% or higher and lower than 20%)	0 (Herbicidal ratio of 5% or lower (almost no effect))	3 (Herbicidal ratio of 40% or higher and lower than 70%)	0 (Herbicidal ratio of 5% or lower (almost no effect))	1 (Herbicidal ratio of 5% or higher and lower than 20%)	0 (Herbicidal ratio of 5% or lower (almost no effect))	0 (Herbicidal ratio of 5% or lower (almost no effect))	0 (Herbicidal ratio of 5% or lower (almost no effect))	0 (Herbicidal ratio of 5% or lower (almost no effect))	0 (Herbicidal ratio of 5% or lower (almost no effect))
CON=C(C)CC1CC(O)=C(c2c(C)cc(-c3ccc(C)cc3)cc2C)C1=O (mixture of isomers) [6-018]	0 (Herbicidal ratio of 5% or lower (almost no effect))	5 (Herbicidal ratio of 90% or more (almost completely withered))	5 (Herbicidal ratio of 90% or more (almost completely withered))	5 (Herbicidal ratio of 90% or more (almost completely withered))	5 (Herbicidal ratio of 90% or more (almost completely withered))	0 (Herbicidal ratio of 5% or lower (almost no effect))	5 (Herbicidal ratio of 90% or more (almost completely withered))	3 (Herbicidal ratio of 40% or higher and lower than 70%)	3 (Herbicidal ratio of 40% or higher and lower than 70%)	3 (Herbicidal ratio of 40% or higher and lower than 70%)	1 (Herbicidal ratio of 5% or higher and lower than 20%)	4 (Herbicidal ratio of 70% or higher and lower than 90%)	0 (Herbicidal ratio of 5% or lower (almost no effect))	5 (Herbicidal ratio of 90% or more (almost completely withered))
